Results published in publication PMC7731220, “Pharmacophore Modeling and 3D-QSAR Study of Indole and Isatin Derivatives as Antiamyloidogenic Agents Targeting Alzheimer’s Disease” (Molecules, 2020).
Like-named read-outs stand apart in the source and are kept apart here.

What was measured:
Aβ40 [1] = molecular target: T1, Aβ40 (Homo sapiens, UniProt P05067); assay: Inhibition of Aβ40 self-aggregation (thioflavin T fluorescence, 2% HFIP); settings: for inhibition at 100 µM: read-out: Aβ40 Aggregation Inhibition % at 100 μM
Experimental: All the newly prepared compounds were tested in a routine in vitro assay of inhibition of Aβ40 self-aggregation [25].
(§1) All assays were performed in 96-well plates (Greiner Bio-One, Kremsmünster, Austria) using an Infinite M1000 Pro plate reader (Tecan, Cernusco s.N., Italy). Inhibition data were obtained as mean ± SD (for single concentration points) or mean ± SEM from three independent experiments (for IC50s), using Prism (GraphPad Prism version 5.00 for Windows, GraphPad Software, San Diego, CA, USA).
Assay of aggregation of Aβ40 (EzBiolab, Carmel, IN, USA) was performed as described [25], using 2% of 1,1,1,3,3,3-hexafluoro-2-propanol as aggregation enhancer and spectrofluorimetric detection of thioflavin T fluorescence as the probe of amyloid aggregation.

tau protein = molecular target: T2, tau protein (Homo sapiens, UniProt P10636); assay: Tau aggregation inhibition assay in bacterial cells (thioflavin S fluorescence); assay type: cell-based, Escherichia coli BL21 (DE3); settings: for inhibition at 10 µM: cell-based assay
T2 construct: inclusions bodies (IBs) formed by tau full-length protein in bacteria; expressed in transfected cells; host or cells: Escherichia coli BL21 (DE3), plasmids pTARA and pRKT42
Source text: The deposition of aggregates of hyperphosphorylated tau protein constitutes the intracellular neurofibrillary tangles, a major histological evidence of AD. The role of tau hyperphosphorylation and aggregation in AD has established both of them as a target for therapeutic intervention, although only N,N,N′,N′-tetramethyl-10H-phenothiazine-3,7-diaminium (TRX0237, leucomethyl-thioninium), the reduced form of methylene blue dye, acting as an inhibitor of tau aggregation, has reached the clinical phase III [26]. In recent years, some of us developed an efficient cell-based assay of tau aggregation, a simple and inexpensive method that provides a straightforward assay to evaluate the putative anti-aggregation capacity of small molecules. This method relies on the use of bacteria overexpressing amyloid-prone proteins to monitor the amyloid aggregation, thus constituting a physiologically relevant model. In particular, it exploits amyloid properties of the inclusions bodies (IBs) formed by tau full-length protein in bacteria stained by thioflavin S (ThS), a specific amyloid dye, to address the bacterial amyloid aggregation and the effect of anti-amyloid compounds in this polymerization process.
Escherichia coli competent cells BL21 (DE3) were transformed with pTARA containing the RNA-polymerase gen of T7 phage (T7RP) under the control of the promoter PBAD and pRKT42 vector encoding four repeats of tau protein in two inserts. Because of the addition of the initiation codon ATG in front of gene, the over-expressed protein contains an additional methionine residue at its N terminus. Tau anti-aggregating activities of the target compounds were assessed in E. coli cells, as previously described. M9 minimal medium (10 mL) containing 0.5% of glucose, 100 μg/mL of ampicillin and 12.5 μg/mL of chloramphenicol was inoculated with a colony of BL21 (DE3) cells bearing the plasmids. To fresh M9 minimal medium containing 0.5% of glucose, 50 μg/mL of ampicillin, 12.5 μg/mL of chloramphenicol, and 250 µM of ThS, the volume of overnight culture necessary to get a 1:500 dilution was added. The cultures were grown at 37 °C and 250 rpm overnight until cell density reached OD600 = 0.6. A volume of 980 μL of the cultures was transferred into 1.5 mL Eppendorf tubes that contained 10 μL of a solution of the target compound in DMSO and 10 μL of arabinose at 25%, leading to a final inhibitor concentration of 10 μM. The resulting cultures were grown at 37 °C and 1400 rpm with a Thermomixer (Eppendorf, Hamburg, Germany) overnight. The same amount of DMSO without the target compound was added to the sample as a negative control (maximal amount of tau), whereas non-induced samples (in the absence of arabinose) were prepared as positive controls (absence of tau), and to assess the potential intrinsic toxicity of the target compounds. In addition, the absorbance at 600 nm of these samples was assessed to confirm the correct bacterial growth, discarding potential intrinsic toxicity of compounds. To determine the IC50 values, the same protocol was followed but only modifying the initial concentration of compounds. In order to use different final concentrations of compound, we performed a dilutions banc from a stock solution of 100 mM in […].
ThS fluorescence and absorbance were tracked using a DTX 800 plate reader Multimode Detector equipped with a Multimode Analysis Software (Beckman-Coulter, Indianapolis, IN, USA). Filters of 430/35 and 485/20 nm were used for the excitation and emission wavelengths, respectively. 535/25 nm filters were also used for the absorbance determination. It should be stressed that ThS fluorescence normalization was carried out considering as 100% the ThS fluorescence of the bacterial cells expressing tau in the absence of compounds and 0% the ThS fluorescence of the bacterial cells non-expressing tau.

[2] = molecular target: T3, human recombinant monoamine oxidase A (Homo sapiens, UniProt P21397); assay: Inhibition of monoamine oxidase A (kynuramine); assay type: biochemical; settings: for IC50: read-out: hMAO A IC50; for inhibition at 10 µM: read-out: hMAO A % Inhib. at 10 μM
T3 construct: purchased Sigma Aldrich; host or cells: baculovirus infected insect cells (microsomes)
T3 sequence (P21397 1-527): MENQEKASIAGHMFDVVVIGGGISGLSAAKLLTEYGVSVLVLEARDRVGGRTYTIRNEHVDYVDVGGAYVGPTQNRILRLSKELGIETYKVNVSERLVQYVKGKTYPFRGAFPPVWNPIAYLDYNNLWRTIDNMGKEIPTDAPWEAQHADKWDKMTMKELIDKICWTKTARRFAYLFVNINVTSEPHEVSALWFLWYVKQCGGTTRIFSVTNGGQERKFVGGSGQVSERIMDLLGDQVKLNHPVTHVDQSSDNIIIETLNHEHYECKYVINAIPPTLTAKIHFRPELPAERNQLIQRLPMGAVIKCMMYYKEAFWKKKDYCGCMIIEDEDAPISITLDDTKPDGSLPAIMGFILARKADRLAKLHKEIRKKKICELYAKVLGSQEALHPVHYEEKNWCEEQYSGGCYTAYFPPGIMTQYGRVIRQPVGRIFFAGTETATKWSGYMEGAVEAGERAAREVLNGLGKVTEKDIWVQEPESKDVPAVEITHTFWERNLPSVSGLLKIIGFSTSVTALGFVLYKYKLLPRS
Experimental: as §1
(§2) Inhibition of human recombinant monoamine oxidases A (250 U/mg) and B (59 U/mg; microsomes from baculovirus infected insect cells; Sigma Aldrich) was determined as already described [48], measuring the fluorescence of 4-hydroxyquinoline produced by the oxidative deamination of substrate kynuramine.

human recombinant AChE = molecular target: T4, human recombinant AChE (Homo sapiens, UniProt P22303); assay: biochemical; settings: for inhibition at 10 µM: read-out: hAChE % Inhib. at 10 μM; for IC50: read-out: hAChE IC50
T4 construct: purchased Sigma Aldrich
Experimental: as §1

[3] = molecular target: T5, human recombinant monoamine oxidase B (Homo sapiens, UniProt P27338); assay: Inhibition of monoamine oxidase B (kynuramine); assay type: biochemical; settings: for IC50: read-out: hMAO B IC50; for inhibition at 10 µM: read-out: hMAO B % Inhib. at 10 μM
T5 construct: purchased Sigma Aldrich; host or cells: baculovirus infected insect cells (microsomes)
T5 sequence (P27338 1-520): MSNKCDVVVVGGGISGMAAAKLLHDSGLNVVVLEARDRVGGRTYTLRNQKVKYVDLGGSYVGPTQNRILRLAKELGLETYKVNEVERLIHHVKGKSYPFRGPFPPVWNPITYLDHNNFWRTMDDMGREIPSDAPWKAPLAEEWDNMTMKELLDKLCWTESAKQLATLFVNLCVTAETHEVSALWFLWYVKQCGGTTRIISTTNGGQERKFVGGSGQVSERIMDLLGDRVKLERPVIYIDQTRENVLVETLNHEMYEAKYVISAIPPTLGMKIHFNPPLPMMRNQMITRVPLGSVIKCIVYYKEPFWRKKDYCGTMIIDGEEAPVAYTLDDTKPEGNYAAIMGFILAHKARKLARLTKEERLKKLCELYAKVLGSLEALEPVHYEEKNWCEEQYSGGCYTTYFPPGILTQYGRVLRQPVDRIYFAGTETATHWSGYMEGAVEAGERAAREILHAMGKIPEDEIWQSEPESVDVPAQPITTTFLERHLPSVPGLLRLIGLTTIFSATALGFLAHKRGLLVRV
Experimental: as §1, §2

Aβ40 [4] = molecular target: T1, Aβ40; settings: cited from earlier work

T4 sequence (P22303 32-614): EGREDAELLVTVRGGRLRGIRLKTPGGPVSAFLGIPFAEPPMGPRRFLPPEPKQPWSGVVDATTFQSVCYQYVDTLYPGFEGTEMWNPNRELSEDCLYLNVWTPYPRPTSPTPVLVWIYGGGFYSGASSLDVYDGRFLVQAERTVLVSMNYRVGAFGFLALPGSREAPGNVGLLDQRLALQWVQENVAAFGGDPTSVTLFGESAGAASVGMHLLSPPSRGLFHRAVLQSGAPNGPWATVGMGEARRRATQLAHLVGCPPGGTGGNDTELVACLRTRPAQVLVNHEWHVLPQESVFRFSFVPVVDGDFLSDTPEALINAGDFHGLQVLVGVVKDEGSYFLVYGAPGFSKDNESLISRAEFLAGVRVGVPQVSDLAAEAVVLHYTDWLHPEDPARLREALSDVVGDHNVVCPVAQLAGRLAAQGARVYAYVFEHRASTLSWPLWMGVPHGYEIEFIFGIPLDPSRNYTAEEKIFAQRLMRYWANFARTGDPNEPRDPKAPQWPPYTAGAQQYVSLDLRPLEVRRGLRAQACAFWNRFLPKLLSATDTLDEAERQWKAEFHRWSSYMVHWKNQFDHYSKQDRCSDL
T1 sequence (P05067 672-711 limits assumed): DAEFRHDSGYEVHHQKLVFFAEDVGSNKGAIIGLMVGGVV
T2 sequence (P10636 other isoform, or with tags, fused parts or gaps): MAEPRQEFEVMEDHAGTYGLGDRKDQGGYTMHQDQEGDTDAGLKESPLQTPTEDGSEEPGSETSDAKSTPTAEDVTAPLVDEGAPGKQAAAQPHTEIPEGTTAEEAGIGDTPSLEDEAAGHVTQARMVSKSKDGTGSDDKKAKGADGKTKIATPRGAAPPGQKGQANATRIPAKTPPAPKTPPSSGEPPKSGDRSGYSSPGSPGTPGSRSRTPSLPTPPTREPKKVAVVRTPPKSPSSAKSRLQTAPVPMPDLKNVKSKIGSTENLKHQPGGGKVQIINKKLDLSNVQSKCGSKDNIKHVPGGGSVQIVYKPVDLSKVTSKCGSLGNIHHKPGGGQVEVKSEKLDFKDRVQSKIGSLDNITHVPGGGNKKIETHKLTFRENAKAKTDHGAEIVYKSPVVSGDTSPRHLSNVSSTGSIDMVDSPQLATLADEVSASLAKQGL

Structure (SMILES) | inhibition at 100 µM (Aβ40 [1]) [%] | inhibition at 10 µM (tau protein) [%] | inhibition at 10 µM (human recombinant AChE) [%] | IC50 [3] [µM] | IC50 (Aβ40 [1]) [µM] | inhibition at 10 µM [2] [%] | also measured
N/N=C1\C(=O)Nc2ccc([N+](=O)[O-])cc21 [Compound 3, (Z)-3-Hydrazineylidene-5-nitroindolin-2-one] | 11 ± 3 | – | – | – | – | – | melting point: 217 to 219 °C
O=C1Nc2ccccc2C1=NN=C1C(=O)Nc2ccccc21 [Compound 4] | 31 ± 3 | 17 ± 2 | – | – | – | – | –
O=C1Nc2ccccc2C1=NNc1ccccc1 [Compound 5, isatin 3-phenylhydrazone] | – | – | 37 ± 1 | 3.6 ± 0.7 | 22 ± 2 | – | selectivity for MAO A over MAO B ([2]; MAO A over MAO B): 7 fold; IC50 [2]: 0.52 ± 0.04 µM; IC50 (tau protein): 4.6 ± 0.7 µM
O=C1Nc2ccccc2C1=NNc1cccc(OCc2ccccc2)c1 [Compound 6, 3-(2-(3-(Benzyloxy)phenyl)hydrazineylidene)indolin-2-one] | 45 ± 6 | 14 ± 2 | – | – | – | 23 ± 5 | IC50 (human recombinant AChE): 4.2 ± 0.8 µM; inhibition at 10 µM [3]: 22 ± 4%
CN1C(=O)C(=NNc2cccc(OCc3ccccc3)c2)c2ccccc21 [Compound 7, 3-(2-(3-(Benzyloxy)phenyl)hydrazineylidene)-1-methylindolin-2-one] | – | 19 ± 2 | 48 ± 3 | – | 2 ± 0.3 | 29 ± 3 | inhibition at 10 µM [3]: 41 ± 1%
O=C1Nc2ccccc2C1=NNc1ccc(OCc2ccccc2)cc1 [Compound 8, 3-(2-(4-(Benzyloxy)phenyl)hydrazineylidene)indolin-2-one] | 69 ± 3 | 35 ± 2 | – | – | – | 8 ± 3 | IC50 (human recombinant AChE): 3.9 ± 0.5 µM; inhibition at 10 µM [3]: 36 ± 4%
CN1C(=O)C(=NNc2ccc(OCc3ccccc3)cc2)c2ccccc21 [Compound 9, 3-(2-(4-(Benzyloxy)phenyl)hydrazineylidene)-1-methylindolin-2-one] | – | 20 ± 2 | 48 ± 2 | 4 ± 0.4 | 0.95 ± 0.04 | 15 ± 3 | –
COc1ccc2c(c1)C(=O)C(=O)N2CCc1ccccc1 [Compound 11] | – | – | 47 ± 5 | 2.7 ± 0.3 | 15 ± 1 | 20 ± 4 | –
COc1ccc2c(c1)C(=O)C(=O)N2CN1CCOCC1 [Compound 13, 5-Methoxy-1-(morpholinomethyl)indoline-2,3-dione] | 23 ± 5 | – | 26 ± 1 | 4.4 ± 0.1 | – | 7 ± 2 | –
COc1ccc2c(c1)C(=NNc1ccc(C(C)C)cc1)C(=O)N2CCN(C)C [Compound 18, 1-(2-(Dimethylamino)ethyl)-3-(2-(4-isopropylphenyl)hydrazineylidene)-5-methoxyindolin-2-one] | – | – | 23 ± 1 | – | 1.3 ± 0.1 | 31 ± 4 | inhibition at 10 µM [3]: 47 ± 2%
CC(C)c1ccc(NN=C2C(=O)N(Cc3ccccc3)c3ccc(O)cc32)cc1 [Compound 19, 1-Benzyl-5-hydroxy-3-(2-(4-isopropylphenyl)hydrazineylidene)indolin-2-one] | – | – | 31 ± 1 | – | 1.6 ± 0.3 | 18 ± 4 | inhibition at 10 µM [3]: 46 ± 5%
O=C1Nc2ccccc2C1=NNc1cccc2ccccc12 [Compound 23, 3-(2-(Naphthalen-1-yl)hydrazono)indolin-2-one] | – | – | 40 ± 3 | 5.3 ± 0.3 | 4.8 ± 0.5 | – | IC50 [2]: 7.1 ± 0.3 µM
COc1ccc2c(c1)C(=NNC(=O)c1ccccc1)C(=O)N2 [Compound 26, N′-(5-Methoxy-2-oxoindolin-3-ylidene)benzhydrazide] | 12 ± 5 | – | – | – | – | – | melting point: > 250 °C
O=C1C(=Cc2ccc(O)cc2)Nc2ccccc21 [Compound 27, 2-(4-Hydroxybenzylidene)indolin-3-one] | 69 ± 1 | – | – | – | – | – | melting point: > 250 °C
Clc1ccc(NN=Cc2c[nH]c3ccccc23)cc1 [Compound 32, 3-((2-(4-Chlorophenyl)hydrazono)methyl)-1H-indole] | – | – | 41 ± 5 | 0.23 ± 0.03 | 8.4 ± 0.6 | – | IC50 [2]: 0.34 ± 0.01 µM
COc1ccc2[nH]cc(C=NNc3ccc4ccccc4n3)c2c1 [Compound 35, 2-(2-((5-Methoxy-1H-indol-3-yl)methylene)hydrazineyl)quinoline] | – | – | 38 ± 2 | 6.5 ± 0.6 | 12 ± 2 | – | IC50 [2]: 3.8 ± 0.3 µM
CC(C)c1ccc(NN=C2NC(=O)c3ccccc32)cc1 [Compound 38, 3-(2-(4-Isopropylphenyl)hydrazineylidene)isoindolin-1-one] | 49 ± 5 | – | – | – | – | – | melting point: 186 to 187 °C
COc1ccc2[nH]cc(/C=N/NC(=O)c3ccc(F)cc3)c2c1 [Compound 45] | 0 | – | – | – | – | – | –
O=C1Nc2ccc([N+](=O)[O-])cc2/C1=N/Nc1ccccc1 [Compound S22] | – | 15 ± 3 | – | – | – | – | Aβ40 Inhibition % at 100 μM (Aβ40 [4]; Table 5, symbol): -^c (No inhibition at 100 μM concentration); % inhib. @ 100 µM (Aβ40 [4]; supplement, training set, 100 µM): -2±7%
COc1ccc2c(c1)/C(=N/Nc1ccccc1)C(=O)N2 [Compound S23] | – | – | – | – | – | – | IC50 (tau protein): 7.7 ± 1 µM; Aβ40 Inhibition % at 100 μM (Aβ40 [4]; Table 5): 52%
COc1ccc2c(c1)/C(=N/Nc1ccc(OCc3ccccc3)cc1)C(=O)N2 [Compound S34] | – | 16 ± 2 | – | – | – | – | Aβ40 Inhibition % at 100 μM (Aβ40 [4]; Table 5): 20%
COc1ccc2c(c1)/C(=N/Nc1cccc(OCc3ccccc3)c1)C(=O)N2 [Compound S35] | – | – | – | – | – | – | IC50 (tau protein): 10 ± 2 µM; Aβ40 Inhibition % at 100 μM (Aβ40 [4]; Table 5): 44%
